# Reference: publication PMC11304236, “A Novel Drug Candidate for Sepsis Targeting Heparanase by Inhibiting Cytokine Storm” (Advanced Science, 2024)
# Legend:
# HPA [1] = test: HPA expression in tissues of LPS-induced septic mice (IHC, immunofluorescence, immunoblotting); format: in vivo, mouse; details: 24 h after LPS injection
# Protocol: (§1) Lungs were harvested from LPS‐induced and CLP‐induced sepsis model mice, and frozen sections were prepared. HUVECs and RAW264.7 macrophages were incubated with CV122 for 3 h, and TNF‐α (20 ng mL^−1) and LPS (5 µg mL^−1) were used to stimulate cells for 1 h. Lung tissue, HUVECs, and RAW264.7 macrophages were fixed with 4% paraformaldehyde for 10 min before permeabilization with 0.5% Triton X‐100 for 10 min. The membrane was sealed with 4% skimmed milk powder and incubated at room temperature for 50 min. Primary antibodies were rabbit anti‐heparanase polyclonal antibodies overnight at 4 °C. The diluent of the secondary antibody FITC‐WGA‐lectin was kept at room temperature and protected from light for 1 h. Nuclei were stained with DAPI. After 120 s, images were acquired with a confocal microscope (LSM 800, Zeiss, Germany).
# The lung, kidney, and liver tissues of mice were fixed in paraformaldehyde. Sections underwent endogenous peroxidase quenching and antigen retrieval followed by incubation with primary antibodies or isotype‐matched controls. […]
# CV122 (50 µM) was incubated with HUVECs and RAW264.7 cells for 3 h, and LPS (5 µg mL^−1) and TNF‐α (20 ng mL^−1) were incubated for 1 h. […] The BCA method was used to quantify protein. […] Blots were developed with a chemiluminescent HRP substrate, and the protein bands were detected with a chemiluminescence imager (MiniChemi610).
# [2] = tested on: splenocytes and lymph node cells; test: Flow cytometry of splenocyte apoptosis and T/B cells in LPS-induced septic mice; format: in vivo, mouse; details: 24 h after LPS
# Protocol: (§2) Each group of mice was euthanized 24 h after LPS injection, spleens were harvested, red blood cells were lysed to detect splenocyte apoptosis, and the ratio of CD3^+CD4^+ T cells, CD3^+CD8^+ T cells, CD3^−CD19^+ B cells in spleen cells and lymph nodes quantified. Antibodies were: FITC‐Annexin V and PI; APC‐CD3, FITC‐CD4, PE‐CD8a, and PE‐CD19. Each group of mice was euthanized 12 h after LPS injection, Lung, kidney, and spleens were harvested, red blood cells were lysed to detect the ratio of macrophages in multiple organs, Antibodies were: FITC anti‐mouse F4/80; APC anti‐mouse CD86. Flow cytometry was used to quantify the adhesion molecules ICAM‐1 and VCAM‐1 on the surface of RAW264.7 cells and HUVECs. CV122 (50 µM) was incubated with the cells for 3 h, LPS (5 µg mL^−1) and TNF‐α (20 ng mL^−1) were used to stimulate the cells for 1 h, and the cells were collected. FITC anti‐mouse CD54 antibody and AF647 anti‐mouse CD106 antibody were incubated for 30 min at room temperature in the dark, PBS was added at 1000 rpm, and the cells were centrifuged for 7 min. A 200‐mesh copper mesh was used to filter the cells into a flow cytometer, and a flow cytometer (BD Biosciences) was used for detection.
# LPS-induced septic mice [3] = test: Treadmill vitality test of LPS-induced septic mice; format: in vivo, mouse; details: LPS-treated mice
# Source text: To further assess the protective effect of CV122 in LPS‐induced septic mice, we assessed the vitality of the mice with or without CV122 treatment by treadmill (Figure 2I).
# HPA [4] = test: HPA levels in LPS-stimulated RAW264.7 macrophages (immunofluorescence, western blotting); format: cell-based, mouse; details: CV122 50 µM 3 h, then LPS 5 µg mL−1 1 h
# Protocol: as §1
# CV122 (50 µM) was incubated with HUVECs and RAW264.7 cells for 3 h, and LPS (5 µg mL^−1) and TNF‐α (20 ng mL^−1) were incubated for 1 h. Total protein was extracted with RIPA tissue/cell lysate solution. Lung tissues were collected and homogenized in cold RIPA buffer to obtain proteins. The BCA method was used to quantify protein. After full denaturing, proteins were separated by 10% SDS‐PAGE and transferred to PVDF membrane. […] Blots were developed with a chemiluminescent HRP substrate, and the protein bands were detected with a chemiluminescence imager (MiniChemi610).
# ICAM-1 and VCAM-1 = ICAM-1 and VCAM-1 on LPS-stimulated RAW264.7 macrophages by flow cytometry; format: cell-based, mouse; details: CV122 50 µM 3 h, LPS 5 µg mL−1 1 h
# Protocol: as §2
# HUVECs [5] = test: Cell survival assay (CCK-8) in HUVECs; format: cell-based, human; details: 50 to 200 µM
# RAW264.7 macrophages = test: Cell surface glycocalyx of LPS-stimulated RAW264.7 macrophages (WGA-FITC, atomic force microscopy); format: cell-based, mouse
# Protocol: as §1
# (§3) HUVECs and RAW264.7 cells in the logarithmic growth phase were digested, centrifuged, and then plated in a six‐well plate at a density of 1 × 10[5] cells per well. CV122 was incubated for 3 h, and cells were stimulated with LPS (5 µg mL^−1) and TNF‐α (20 ng mL^−1) for 5 h. Cell‐covered slides were carefully removed and placed on the stage of the atomic force microscope with needle parameters: elastic coefficient 0.4 N M^−1, sensitivity 65.63 nm V^−1, with otherwise the usual atomic force microscope (Bruker, Billerica, MA) parameters used.
# HUVECs [6] = test: Cell surface glycocalyx of TNF-α-stimulated HUVECs (WGA-FITC, atomic force microscopy); format: cell-based, human
# Protocol: as §1, §3
# LPS-induced septic mice [7] = test: LPS-induced sepsis mouse model, survival; format: in vivo; details: LPS group 0%
# Protocol: For LPS‐induced sepsis model experiments, 25 male C57BL/6J mice, 6–8 weeks old, weighing 20–25 g, were randomly divided into five groups (n = 5 in each group), and survival was examined. The abdominal cavity was injected with 40 mg kg^−1 LPS to induce sepsis. 30 min later, mice in group 1 were injected subcutaneously with 0.9% NaCl, mice in groups 2–4 were injected subcutaneously with CV122 (20 mg kg^−1), CV122 (30 mg kg^−1), and CV122 (40 mg kg^−1), respectively, and mice in group 5 were injected subcutaneously with Suramin (40 mg kg^−1). The status of the mice was observed and recorded every day.
# LPS-induced septic mice [8] = details: mouse, in vivo
# CCHFV = format: in vivo, mouse
smiles,measurement,setting,value
COC1OC(COS(=O)(=O)O)C(OC2OC(C(=O)O)C(OC3OC(COS(=O)(=O)O)C(OC4OC(C(=O)O)C(OC5OC(COS(=O)(=O)O)C(O)C(O)C5NS(=O)(=O)O)C(OS(=O)(=O)O)C4O)C(OS(=O)(=O)O)C3NS(=O)(=O)O)C(O)C2OS(=O)(=O)O)C(O)C1NS(=O)(=O)O (stereo not drawn) [CV122],HPA overexpression in the lungs,HPA [1],significantly reduced the HPA overexpression
same,CD3+CD4+ T cells and CD3+CD8+ T cells in spleen,[2],recovered by CV122 to close to control levels
same,CD3−CD19+ B cells in spleen and inguinal lymph nodes,[2],recovered upon treatment with CV122
same,splenocyte apoptosis (FITC-Annexin V and PI),[2],significantly reduced apoptosis
same,electric shocks needed in the first 100 m,LPS-induced septic mice [3],reduced the electric shocks needed in the first 100 m
same,running distance and time to exhaustion,LPS-induced septic mice [3],significantly increased the running distance and extended the time to exhaustion
same,total electric shocks until exhaustion,LPS-induced septic mice [3],obviously increased the total electric shocks until exhaustion
same,HPA levels in macrophages,HPA [4],significantly inhibited HPA levels following LPS stimulation of macrophages
same,ICAM-1 and VCAM-1 expression,ICAM-1 and VCAM-1,reversed after CV122 treatment
same,effect on survival of HUVECs,HUVECs [5],no significant inhibitory effect
same,glycocalyx by WGA-FITC fluorescence,RAW264.7 macrophages,significantly protected the glycocalyx of macrophages
same,glycocalyx structure by atomic force microscopy,RAW264.7 macrophages,protected against disruption of the glycocalyx structure
same,glycocalyx integrity by WGA-FITC fluorescence,HUVECs [6],rescued glycocalyx integrity
same,glycocalyx structure / surface roughness by atomic force microscopy,HUVECs [6],reduced glycocalyx damage and resulted in a smoother surface
same,survival rate,LPS-induced septic mice [7]; 20 mg kg−1 s.c. 30 min after LPS 40 mg kg−1 i.p.,60%
same,survival rate,"LPS-induced septic mice [7]; 40 mg kg−1 s.c. 30 min after LPS 40 mg kg−1 i.p., 80 h or longer observation",100%
same,"AST, ALT, BUN in serum and MPO in lung tissue",LPS-induced septic mice [8],"returned to normal upon CV122 treatment, which was more effective than Suramin"
same,kidney damage (H&E),LPS-induced septic mice [8],resolved by CV122
same,liver damage (H&E),LPS-induced septic mice [8],significantly improved by CV122
same,lung inflammation by micro-CT imaging,LPS-induced septic mice [8],almost completely inhibit this progress
same,lung pathological damage (H&E),LPS-induced septic mice [8],significantly improved by CV122 administration
same,lung weight/body weight ratio,LPS-induced septic mice [8],significantly decreased
same,lung wet–dry weight ratio,LPS-induced septic mice [8],extremely significantly decreased
same,spleen pathological changes (H&E),LPS-induced septic mice [8],no pathological changes were observed in spleen tissue
same,spleen pathological damage (H&E),CCHFV; 7 d after infection,spleen congestion and edema were slightly reduced
same,body weight,CCHFV; CCHFV-infected IFNAR−/− mice,slightly higher body weights
same,survival rate,"CCHFV; CV122 20 mg kg−1 s.c. at 2, 3, 4 and 5 days after infection, IFNAR−/− mice, 8 day or longer observation, control 20%",80%
